Legend:
[1] = target: SLC-1 expressing CHO cell membrane fractions (MCH receptor) (UniProt Q99705); assay: Determination of antagonist activity using GTPgS binding assay; assay type: biochemical, human and rat (not specified for the table); details: [35S]-GTPγS binding stimulated by MCH, SLC-1 expressing CHO cell membrane 20 μg/ml, 1 hour; read-out: Inhibition Activity (IC50 value: nM)
Experimental: Membrane fraction was prepared by the following method, using the human SLC-1 expressing CHO cell clone 57 obtained in Reference Example 1-10, and the rat SLC-1 expressing CHO cell clone 44 obtained in Reference Example 1-4.
The human and rat SLC-1 expressing CHO cells (1×10^8) were scraped in buffer saline phosphate (pH 7.4) to which 5 mM EDTA (ethylenediaminetetraacetic acid) had been added, and centrifuged. 10 ml of homogenized buffer (10 mM NaHCO3, 5 mM EDTA, pH 7.5) was added to the cell pellets, and they were homogenized using a Polytron homogenizer. […]
After this reaction mixture was allowed to react for 1 hour under stirring, it was filtered under vacuum using a glass filter (GF-C), then the filter was washed 3 times with 300 μl of washing solution (50 mM Tris-HCl buffer solution pH 7.5). […] of liquid scintillator was added to the glass filter, and residual radioactivity was determined using a liquid scintillation counter.
The IC50 value of the compound was calculated from the binding inhibition rate (%), based on the definition that the binding inhibition rate (%)=(radioactivity when compound and MCH were added−radioactivity when DMSO solution was added)/(radioactivity when MCH was added−radioactivity when DMSO solution was added)×100.

Compound | IC50 [1] [nM] | melting point
COc1ccc(-c2ccc(C(=O)Nc3ccc4c(c3)CCC(CN(C)C)C4)cc2)cc1 (centres unmarked) [Example 1, N-[2-(N,N-Dimethylamino)methyl-6-tetralinyl]-(4′-methoxybiphenyl-4-yl)carboxamide] | 40 | 
CN(C)CCNC(=O)Cc1ccc(NC(=O)c2ccc(OCc3ccc(-c4ccccc4)cc3)cc2)cc1 [Example 191, 4-([1,1′-Biphenyl]-4-ylmethoxy)-N-[4-[2-[[2-(dimethylamino)ethyl]amino]-2-oxoethyl]phenyl]benzamide] |  | 204 to 208 °C
CN(C)CCNC(=O)Cc1ccc(NC(=O)c2ccc(NC(=O)c3ccccc3)cc2)cc1 [Example 192, 4-(Benzoylamino)-N-[4-[2-[[2-(dimethylamino)ethyl]amino]-2-oxoethyl]phenyl]benzamide] |  | 220 to 221 °C
COc1ccc(-c2ccc(C(=O)Nc3ccc(CC(=O)NCCN(C)C)cc3)cc2)cc1 [Example 193, N-[4-[2-[[2-(Dimethylamino)ethyl]amino]-2-oxoethyl]phenyl]-4′-methoxy[1,1′-biphenyl]-4-carboxamide] |  | 196 to 198 °C (dec.)
CN(C)CCNC(=O)Cc1ccc(NC(=O)c2ccc3c(c2)S(=O)(=O)c2ccccc2C3=O)cc1 [Example 194, N-[4-[2-[[2-(Dimethylamino)ethyl]amino]-2-oxoethyl]phenyl]-9,10,10-trioxo-9,10-dihydro-10λ^6-thioxanten-3-carboxamide] |  | 162 to 163 °C (dec.)
CN(C)CCNC(=O)Cc1ccc(NC(=O)c2ccc(OCc3ccccc3)cc2)cc1 [Example 195] |  | 190 to 192 °C (dec.)
CN(C)CCNC(=O)Cc1ccc(NC(=O)c2ccc(C(=O)c3ccccc3)cc2)cc1 [Example 196, 4-Benzoyl-N-[4-[2-[[2-(dimethylamino)ethyl]amino]-2-oxoethyl)phenyl]benzamide] |  | 173 to 175 °C (dec.)
Cc1cc(-c2ccncc2)c(C(=O)Nc2ccc(CC(=O)NCCN(C)C)cc2)[nH]1 [Example 197, N-[4-[2-[[2-(Dimethylamino)ethyl]amino]-2-oxoethyl]phenyl]-5-methyl-3-(4-pyridinyl)-1H-pyyrole-2-carboxamide] |  | 215 to 218 °C (dec.)
COc1ccc(-c2ccc(C(=O)Nc3ccc4c(c3)CCC(CN3CCCC3)=C4C)cc2)cc1 [Example 200, 4′-Methoxy-N-[6-(1-pyrrolidinylmethyl)-5-methyl-7,8-dihydro-2-naphthalenyl][1,1′-biphenyl]-4-carboxamide] |  | 179 to 180 °C
CN(C)CC1CCc2cc(NC(=O)N3CCC(c4ccc(F)cc4)CC3)ccc2C1O (centres unmarked) [Example 203, N-[6-[(Dimethylamino)methyl]-5-hydroxy-5,6,7,8-tetrahydro-2-naphthalenyl]-4-(4-fluorophenyl)-1-piperidinecarboxamide] |  | 160 to 163 °C
O=C(Nc1ccc2c(c1)CCC(CCN1CCCC1)=C2)c1ccc(-c2ccccc2)cc1 [Example 204, N-[6-[2-(1-Pyrrolidinyl)ethyl]-7,8-dihydro-2-naphthalenyl][1,1′-biphenyl]-4-carboxamide] |  | 184 to 186 °C
O=C(Nc1ccc2c(c1)CCC(CCN1CCCC1)=C2)c1ccc(-c2ccc(F)cc2)cc1 [Example 205, 4′-Fluoro-N-[6-[2-(1-pyrrolidinyl)ethyl]-7,8-dihydro-2-naphthalenyl][1,1′-biphenyl]-4-carboxamide] |  | 187 to 189 °C
O=C(Nc1ccc2c(c1)CCC(CCN1CCCC1)=C2)c1ccc(-c2ccc(Cl)cc2)cc1 [Example 206, 4′-Chloro-N-[6-[2-(1-pyrrolidinyl)ethyl]-7,8-dihydro-2-naphthalenyl][1,1′-biphenyl]-4-carboxamide] |  | 207 to 209 °C
CN(C)CC1CCc2cc(NC(=O)c3ccc(-c4ccc(C#N)cc4)cc3)ccc2C1 (centres unmarked) [Example 207, 4′-Cyano-N-[6-[(dimethylamino)methyl]-5,6,7,8-tetrahydro-2-naphthalenyl][1,1′-biphenyl]-4-carboxamide] |  | 183 to 185 °C
CN(C)CCC1=Cc2ccc(NC(=O)c3ccc(-c4ccccc4)cc3)cc2CC1 [Example 208, N-[6-[2-(Dimethylamino)ethyl]-7,8-dihydro-2-naphthalenyl][1,1′-biphenyl]-4-carboxamide] |  | 148 to 150 °C
CN(C)CCC1CCc2cc(NC(=O)c3ccc(-c4ccccc4)cc3)ccc2C1 (centres unmarked) [Example 209, N-[6-[2-(Dimethylamino)ethyl]-5,6,7,8-tetrahydro-2-naphthalenyl][1,1′-biphenyl]-4-carboxamide] |  | 112 to 114 °C
CC1=C(CN2CCCC2)CCc2cc(NC(=O)c3ccc(-c4ccc(C)cc4)nc3)ccc21 [Example 228, 6-(4-Methylphenyl)-N-[5-methyl-6-(1-pyrrolidinylmethyl)-7,8-dihydro-2-naphthalenyl]nicotinamide] |  | 175 to 176 °C
CC1=C(CN2CCCC2)CCc2cc(NC(=O)c3ccc(-c4ccc(F)cc4)cc3)ccc21 [Example 229, 4′-Fluoro-N-[5-methyl-6-(1-pyrrolidinylmethyl)-7,8-dihydro-2-naphthalenyl][1,1′-biphenyl]-4-carboxamide] |  | 199 to 201 °C
CC1=C(CN2CCCC2)CCc2cc(NC(=O)c3ccc(-c4ccccc4)nc3)ccc21 [Example 233, N-[5-Methyl-6-(1-pyrrolidinylmethyl)-7,8-dihydro-2-naphthalenyl]-6-phenylnicotinamide] |  | 178 to 179 °C
CC1=C(CN2CCCC2)CCc2cc(NC(=O)N3CCC(c4ccc(C)cc4)CC3)ccc21 [Example 238, 4-(4-Methylphenyl)-N-[5-methyl-6-(1-pyrrolidinylmethyl)-7,8-dihydro-2-naphthalenyl]-1-piperidinecarboxamide] |  | 159 to 160 °C
Cc1ccc(C2CCN(C(=O)Nc3ccc4c(c3)CCC(CN3CCN(C)CC3)=C4)CC2)cc1 [Example 241, 4-(4-Methylphenyl)-N-[6-[(4-methyl-1-piperazinyl)methyl]-7,8-dihydro-2-naphthalenyl]-1-piperidinecarboxamide] |  | 214 to 216 °C
COc1ccc(C2CCN(C(=O)Nc3ccc4c(c3)CCC(CN3CCN(C)CC3)=C4)CC2)cc1 [Example 242, 4-(4-Methoxyphenyl)-N-[6-[(4-methyl-1-piperazinyl)methyl]-7,8-dihydro-2-naphthalenyl]-1-piperidinecarboxamide] |  | 198 to 200 °C
CN(C)CC1=Cc2ccc(NC(=O)c3ccc(-c4ccc(F)cc4)cc3)cc2C1 [Example 245, N-[2-[(Dimethylamino)methyl]-1H-inden-6-yl]-4′-fluoro[1,1′-biphenyl]-4-carboxamide] |  | 209 to 211 °C
CN(C)CC1=Cc2ccc(NC(=O)c3ccc(-c4ccc(Cl)cc4)cc3)cc2C1 [Example 246, 4′-Chloro-N-[2-[(dimethylamino)methyl]-1H-inden-6-yl][1,1′-biphenyl]-4-carboxamide] |  | 218 to 220 °C
CN(C)CC1CCc2cc(NC(=O)c3ccc(-c4ccccc4)cc3)ccc2C1.Cl (centres unmarked) [Reference Example 25, N-[2-(N,N-Dimethylamino)methyl-6-tetralinyl]-4-biphenylylcarboxamide hydrochloride] | 90 | > 250 °C
O=C(NCCN1CCCCC1)c1ccc(NC(=O)c2ccc(-c3ccccc3)cc2)cc1 [compound 22, N-[4-[[2-(Piperidinoethyl)amino]carbonyl]phenyl] 4-biphenylylcarboxamide] |  | 247 to 252 °C (dec.)
O=C(NCCN1CCCC1)c1ccc(NC(=O)c2ccc(-c3ccccc3)cc2)cc1 [compound 23] |  | 241 to 245 °C (dec.)
CN(C)CC1CCc2cc(NC(=O)c3ccc(-c4ccccc4)cc3)ccc2C1 (centres unmarked) [compound 24, N-[2-(N,N-Dimethylamino)methyl-6-tetralinyl]-4-biphenylylcarboxamide] |  | 164 to 166 °C

Source: US7115750B1, “Melanin concentrating hormone antagonist” (Takeda Pharmaceutical Company Limited, priority 1999, dated 2006)
